# From article PMC11702208 (RSC Advances, 2025)
# Assays:
# [1] = test system: Colon cancer subpanel tumor cell lines; assay: NCI cytotoxicity screen, subpanel; assay type: cell-based, human
# BT-549 = assay: NCI cytotoxicity screen; assay type: cell-based, human; settings: Homo sapiens
# OVCAR-5 = assay: NCI cytotoxicity screen; assay type: cell-based, human; settings: Homo sapiens, OVCAR-5
# SNB-19 = assay: NCI cytotoxicity screen; assay type: cell-based, human; settings: Homo sapiens
# [2] = test system: NSC lung cancer subpanel tumor cell lines; assay: NCI cytotoxicity screen, subpanel; assay type: cell-based, human
# UO-31 = assay: NCI cytotoxicity screen; assay type: cell-based, human; settings: Homo sapiens
# NCI-H23 = assay: NCI cytotoxicity screen; assay type: cell-based, human; settings: Homo sapiens
# MDA-MB-231/ATCC = assay: NCI cytotoxicity screen; assay type: cell-based, human; settings: Homo sapiens, MDA-MB-231
# MALME-3M = assay: NCI cytotoxicity screen; assay type: cell-based, human; settings: Homo sapiens, Malme-3M
# TK-10 = assay: NCI cytotoxicity screen; assay type: cell-based, human; settings: Homo sapiens
# SNB-75 = assay: NCI cytotoxicity screen; assay type: cell-based, human; settings: Homo sapiens
# UACC-62 = assay: NCI cytotoxicity screen; assay type: cell-based, human; settings: Homo sapiens
# IGROV1 = assay: NCI cytotoxicity screen; assay type: cell-based, human; settings: Homo sapiens, IGROV-1
# SF-295 = assay: NCI cytotoxicity screen; assay type: cell-based, human; settings: Homo sapiens
# SN12C = assay: NCI cytotoxicity screen; assay type: cell-based, human; settings: Homo sapiens, SN12C
# SF-268 = assay: NCI cytotoxicity screen; assay type: cell-based, human; settings: Homo sapiens
# OVCAR-8 = assay: NCI cytotoxicity screen; assay type: cell-based, human; settings: Homo sapiens
# SF-539 = assay: NCI cytotoxicity screen; assay type: cell-based, human; settings: Homo sapiens
# OVCAR-3 = assay: NCI cytotoxicity screen; assay type: cell-based, human; settings: Homo sapiens, OVCAR-3
# NCI-H460 = assay: NCI cytotoxicity screen; assay type: cell-based, human; settings: Homo sapiens
# HOP-92 = assay: NCI cytotoxicity screen; assay type: cell-based, human; settings: Homo sapiens
# NCI-H322M = assay: NCI cytotoxicity screen; assay type: cell-based, human; settings: Homo sapiens
# SW-620 = assay: NCI cytotoxicity screen; assay type: cell-based, human; settings: Homo sapiens
# COLO 205 = assay: NCI cytotoxicity screen; assay type: cell-based, human; settings: Homo sapiens, COLO 205
# MDA-MB-468 = assay: NCI cytotoxicity screen; assay type: cell-based, human; settings: Homo sapiens
# HT29 = assay: NCI cytotoxicity screen; assay type: cell-based, human; settings: Homo sapiens, HT-29
# SK-MEL-2 = assay: NCI cytotoxicity screen; assay type: cell-based, human; settings: Homo sapiens
# K-562 = assay: cells; settings: Homo sapiens, K562
# HCT-15 = assay: NCI cytotoxicity screen; assay type: cell-based, human; settings: Homo sapiens
# SR = assay: NCI cytotoxicity screen; assay type: cell-based, human; settings: Homo sapiens
# MCF7 = assay: NCI cytotoxicity screen; assay type: cell-based, human; settings: Homo sapiens, MCF7
# EKVX = assay: NCI cytotoxicity screen; assay type: cell-based, human; settings: Homo sapiens
# MDA-MB-435 = assay: NCI cytotoxicity screen; assay type: cell-based, human; settings: Homo sapiens
# NCI-H226 = assay: NCI cytotoxicity screen; assay type: cell-based, human; settings: Homo sapiens
# [3] = test system: CNS cancer subpanel tumor cell lines; assay: NCI cytotoxicity screen, subpanel; assay type: cell-based, human
# HOP-62 = assay: NCI cytotoxicity screen; assay type: cell-based, human; settings: Homo sapiens
# HCT-116 = assay: NCI cytotoxicity screen; assay type: cell-based, human; settings: Homo sapiens
# CAKI-1 = assay: NCI cytotoxicity screen; assay type: cell-based, human; settings: Homo sapiens
# OVCAR-4 = assay: NCI cytotoxicity screen; assay type: cell-based, human; settings: Homo sapiens, OVCAR-4
# T-47D = assay: NCI cytotoxicity screen; assay type: cell-based, human; settings: Homo sapiens, T47D
# PC-3 = assay: NCI cytotoxicity screen; assay type: cell-based, human; settings: Homo sapiens
# HL-60(TB) = assay: cells; settings: Homo sapiens
# [4] = test system: Prostate cancer subpanel tumor cell lines; assay: NCI cytotoxicity screen, subpanel; assay type: cell-based, human
# NCI/ADR-RES = assay: NCI cytotoxicity screen; assay type: cell-based, human; settings: Homo sapiens, five-dose
# HCC-2998 = assay: NCI cytotoxicity screen; assay type: cell-based, human; settings: Homo sapiens, HCC 2998
# [5] = subpanel value, NSC lung cancer
smiles,measurement,setting,value
"C#Cc1cccc(Nc2ncnc3cc(OCCOC)c(OCCOC)cc23)c1 [Erlotinib, reference compound]",CC50,"[1]; Homo sapiens, read-out: LC50",> 100 µM
same,GI50,"[1]; Homo sapiens, subpanel value, Colon cancer",51.7 µM
same,GI50,"[1]; subpanel value, Colon cancer",51.7 µM
same,TGI,"[1]; subpanel value, Colon cancer",c (Compounds showed values > 100 μM)
same,GI50,BT-549,39.8 µM
same,GI50,OVCAR-5,19.9 µM
same,GI50,SNB-19,3.98 µM
same,CC50,"[2]; Homo sapiens, read-out: LC50",97.7 µM
same,GI50,"[2]; Homo sapiens, subpanel value, NSC lung cancer",13.1 µM
same,GI50,[2]; [5],13.1 µM
same,TGI,[2]; [5],73.76 µM
same,GI50,UO-31,1.99 µM
same,GI50,NCI-H23,19.9 µM
same,GI50,MDA-MB-231/ATCC,1.99 µM
same,GI50,MALME-3M,5.01 µM
same,GI50,TK-10,0.1 µM
same,GI50,SNB-75,12.6 µM
same,GI50,UACC-62,1.25 µM
same,GI50,IGROV1,0.25 µM
same,GI50,SF-295,15.8 µM
same,GI50,SN12C,6.3 µM
same,GI50,SF-268,19.9 µM
same,GI50,OVCAR-8,7.94 µM
same,GI50,SF-539,12.6 µM
same,GI50,OVCAR-3,3.16 µM
same,GI50,NCI-H460,5.01 µM
same,GI50,HOP-92,6.3 µM
same,GI50,NCI-H322M,0.05 µM
same,GI50,SW-620,5.01 µM
same,GI50,COLO 205,31.6 µM
same,GI50,MDA-MB-468,0.2 µM
same,GI50,HT29,50.1 µM
same,GI50,SK-MEL-2,12.6 µM
same,GI50,K-562,15.5 µM
same,GI50,HCT-15,3.16 µM
same,GI50,SR,6.3 µM
same,GI50,MCF7,100 µM
same,GI50,EKVX,0.005 µM
same,GI50,MDA-MB-435,15.8 µM
same,GI50,NCI-H226,6.3 µM
same,CC50,"[3]; Homo sapiens, read-out: LC50",> 100 µM
same,GI50,"[3]; Homo sapiens, subpanel value, CNS cancer",17 µM
same,GI50,"[3]; subpanel value, CNS cancer",17 µM
same,TGI,"[3]; subpanel value, CNS cancer",82.11 µM
same,GI50,HOP-62,12.6 µM
same,GI50,HCT-116,5.01 µM
same,GI50,CAKI-1,0.1 µM
same,GI50,OVCAR-4,19.9 µM
same,GI50,T-47D,3.16 µM
same,GI50,PC-3,50.1 µM
same,GI50,HL-60(TB),5.01 µM
same,CC50,"[4]; Homo sapiens, read-out: LC50",> 100 µM
same,GI50,"[4]; Homo sapiens, subpanel value, Prostate cancer",20.9 µM
same,TGI,"[4]; subpanel value, Prostate cancer",c (Compounds showed values > 100 μM)
same,GI50,NCI/ADR-RES,6.3 µM
same,GI50,HCC-2998,79.3 µM
